Data published in PubChem BioAssay (NCI).
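Protocol summary: plate cells (96-well), add compound at 5 concentrations, incubate 48 h, interpolate endpoints linearly. Here, GI50 denotes the concentration required for 50% inhibition of growth. TGI is the concentration that stops growth completely.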

Columns and labels:
Experiment in all cases: growth of human tumour cells (NCI), 48 h; in the data active means GI50 below about 0.43 µM; inactive means the rest
[1] = test system: HOP-62 NSCLC
[2] = test system: DMS 273 small cell lung
[3] = test system: 786-0 renal
[4] = test system: HCC-2998 colon
[5] = test system: OVCAR-5 ovarian
[6] = test system: MOLT-4 leukemia
[7] = test system: ACHN renal
[8] = test system: UACC-257 melanoma
[9] = test system: SK-MEL-28 melanoma
[10] = test system: KM20L2 colon
[11] = test system: IGROV1 ovarian
[12] = test system: OVCAR-4 ovarian
[13] = test system: SK-MEL-2 melanoma
[14] = test system: M19-MEL melanoma
[15] = test system: UACC-62 melanoma
[16] = test system: SF-295 CNS
[17] = test system: NCI-H23 lung
[18] = test system: A549 NSCLC
[19] = test system: A498 renal
[20] = test system: NCI-H522 lung
[21] = test system: SK-MEL-5 melanoma
[22] = test system: U251 CNS
[23] = test system: HT29 colon
[24] = test system: SW-620 colon
[25] = test system: HL-60(TB) leukemia
[26] = test system: MALME-3M melanoma
[27] = test system: OVCAR-3 ovarian
[28] = test system: LOX IMVI melanoma
[29] = test system: M14 melanoma
[30] = test system: DLD-1 colon
[31] = test system: HOP-92 NSCLC
[32] = test system: KM12 colon
[33] = test system: SNB-19 CNS
[34] = test system: CCRF-CEM leukemia
[35] = test system: HCT-116 colon
[36] = test system: UO-31 renal
[37] = test system: NCI-H226 lung
[38] = test system: COLO 205 colon
[39] = test system: SF-268 CNS
[40] = test system: SF-539 CNS
[41] = test system: CAKI-1 renal
[42] = test system: HCT-15 colon
[43] = test system: RPMI-8226 leukemia
[44] = test system: SK-OV-3 ovarian
[45] = test system: EKVX NSCLC
[46] = test system: SN12C renal
[47] = test system: TK-10 renal
[48] = test system: K-562 leukemia
[49] = test system: OVCAR-8 ovarian
[50] = test system: LXFL 529 NSCLC
[51] = test system: SNB-75 CNS
[52] = test system: NCI-H460 lung
[53] = test system: DMS 114 small cell lung

[Cl-].[Nd+3].[O-]/N=C(\c1ccccc1)c1ccccn1.[O-]/N=C(\c1ccccc1)c1ccccn1.[O-]/N=C(\c1ccccc1)c1ccccn1
69.8 µM: TGI [14]
56.7 µM: TGI [36]
53.6 µM: TGI [25]
82.7 µM: TGI [17]
62.2 µM: TGI [40]
inactive: GI50 [1] 24.9 µM | GI50 [2] 26.9 µM | GI50 [3] 31 µM | GI50 [4] 36.3 µM | GI50 [5] 31.2 µM | GI50 [6] 23.8 µM | GI50 [7] 37.8 µM | GI50 [8] 33.6 µM | GI50 [9] 27.3 µM | GI50 [10] 39.1 µM | GI50 [11] 30.6 µM | GI50 [12] 45.1 µM | GI50 [13] 28 µM | GI50 [14] 25 µM | GI50 [15] 28.7 µM | GI50 [16] 22.3 µM | GI50 [17] 30.3 µM | GI50 [18] 33.7 µM | GI50 [19] 24.5 µM | GI50 [20] 23 µM | GI50 [21] 22.6 µM | GI50 [22] 38.9 µM | GI50 [23] 54.2 µM | GI50 [24] 41.1 µM | GI50 [25] 16.5 µM | GI50 [26] 30 µM | GI50 [27] 17.5 µM | GI50 [28] 22.6 µM | GI50 [29] 23 µM | GI50 [30] 39.6 µM | GI50 [31] 25 µM | GI50 [32] 38.8 µM | GI50 [33] 35.9 µM | GI50 [34] 16.4 µM | GI50 [35] 37.6 µM | GI50 [36] 19.8 µM | GI50 [37] 13.3 µM | GI50 [38] 31.2 µM | GI50 [39] 24.8 µM | GI50 [40] 23.8 µM | GI50 [41] 30.6 µM | GI50 [42] 31.7 µM | GI50 [43] 39.2 µM | GI50 [44] 37.1 µM | GI50 [45] 31.1 µM | GI50 [46] 37.2 µM | GI50 [47] 37.5 µM | GI50 [48] 34.4 µM | GI50 [49] 34.1 µM | GI50 [50] 40.4 µM | GI50 [51] 3.78 µM | GI50 [52] 29.4 µM | GI50 [53] 24.6 µM
98.3 µM: TGI [31]
17.2 µM: TGI [51]
80.1 µM: TGI [20]
90.2 µM: TGI [6]
82.2 µM: TGI [3]
55.4 µM: TGI [21]
> 100 µM: TGI [1] | TGI [4] | TGI [5] | TGI [7] | TGI [10] | TGI [11] | TGI [12] | TGI [15] | TGI [16] | TGI [18] | TGI [19] | TGI [22] | TGI [23] | TGI [24] | TGI [27] | TGI [30] | TGI [32] | TGI [33] | TGI [35] | TGI [38] | TGI [41] | TGI [42] | TGI [43] | TGI [44] | TGI [45] | TGI [46] | TGI [47] | TGI [48] | TGI [49] | TGI [50] | TGI [52]
85.1 µM: TGI [9] | TGI [39]
79 µM: TGI [53]
99.3 µM: TGI [8]
58 µM: TGI [28]
66.4 µM: TGI [13]
96.9 µM: TGI [26]
45.8 µM: TGI [29]
45.6 µM: TGI [37]
97 µM: TGI [2]
95.3 µM: TGI [34]
